Data taken from ChEMBL document CHEMBL1201862, “PubChem BioAssay data set” (2004).
Calls of active or inactive are those of the source.

How the values were obtained:
[1] = target: Voltage-dependent T-type calcium channel subunit alpha-1H (Homo sapiens, UniProt O95180); type: functional;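 also: channel activity triggered by adding a high calcium stimulation buffer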
[2] = target: Luciferin 4-monooxygenase (Photinus pyralis, UniProt P08659); assay: inhibition of purified Photinus pyralis luciferase – biochemical, luminescence, dose response (AID 1891)
Sequence of Luciferin 4-monooxygenase (P08659 whole entry): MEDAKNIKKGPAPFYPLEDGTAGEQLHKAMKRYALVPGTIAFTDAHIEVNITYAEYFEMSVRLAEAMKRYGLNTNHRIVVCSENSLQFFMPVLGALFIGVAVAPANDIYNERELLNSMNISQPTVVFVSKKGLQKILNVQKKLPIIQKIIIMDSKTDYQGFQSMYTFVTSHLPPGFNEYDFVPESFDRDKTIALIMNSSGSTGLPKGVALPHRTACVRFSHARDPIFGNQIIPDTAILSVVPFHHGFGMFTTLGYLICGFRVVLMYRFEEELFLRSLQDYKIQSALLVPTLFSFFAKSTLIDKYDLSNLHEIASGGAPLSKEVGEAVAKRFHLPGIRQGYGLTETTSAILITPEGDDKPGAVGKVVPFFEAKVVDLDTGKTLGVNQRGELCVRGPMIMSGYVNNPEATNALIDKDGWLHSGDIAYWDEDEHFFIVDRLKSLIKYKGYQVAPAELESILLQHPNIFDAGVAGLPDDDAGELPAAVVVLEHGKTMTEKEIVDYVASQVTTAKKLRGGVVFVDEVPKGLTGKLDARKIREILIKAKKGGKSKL

[3] = Luminescence Cell-Based Dose Confirmation HTS to Identify Inhibitors of Platelet Dense Granule Release. [Related pubchem assays: 1663 (Primary HTS), 1678 (Summary of Project)]; type: functional
[4] = target: DNA dC->dU-editing enzyme APOBEC-3A (Homo sapiens, UniProt P31941); assay: Dose Response confirmation of small molecule APOBEC3A DNA Deaminase Inhibitors via a fluorescence-based single-stranded DNA deaminase assay. [Related pubchem assays (depositor defined):AID493011, AID493024]; type: functional
Sequence of DNA dC->dU-editing enzyme APOBEC-3A (P31941 whole entry): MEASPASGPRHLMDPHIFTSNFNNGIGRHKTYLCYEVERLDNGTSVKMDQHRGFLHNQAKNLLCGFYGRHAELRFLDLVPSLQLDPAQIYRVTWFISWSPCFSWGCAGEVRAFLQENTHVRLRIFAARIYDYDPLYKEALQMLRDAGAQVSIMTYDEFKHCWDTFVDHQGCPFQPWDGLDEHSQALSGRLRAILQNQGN

[5] = target: DNA dC->dU-editing enzyme APOBEC-3G (Homo sapiens, UniProt Q9HC16); type: functional;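 also: Dose-response counterscreen measuring inhibition of APOBEC3G DNA deaminase activity, run while confirming APOBEC3A inhibitors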
Sequence of DNA dC->dU-editing enzyme APOBEC-3G (Q9HC16 whole entry): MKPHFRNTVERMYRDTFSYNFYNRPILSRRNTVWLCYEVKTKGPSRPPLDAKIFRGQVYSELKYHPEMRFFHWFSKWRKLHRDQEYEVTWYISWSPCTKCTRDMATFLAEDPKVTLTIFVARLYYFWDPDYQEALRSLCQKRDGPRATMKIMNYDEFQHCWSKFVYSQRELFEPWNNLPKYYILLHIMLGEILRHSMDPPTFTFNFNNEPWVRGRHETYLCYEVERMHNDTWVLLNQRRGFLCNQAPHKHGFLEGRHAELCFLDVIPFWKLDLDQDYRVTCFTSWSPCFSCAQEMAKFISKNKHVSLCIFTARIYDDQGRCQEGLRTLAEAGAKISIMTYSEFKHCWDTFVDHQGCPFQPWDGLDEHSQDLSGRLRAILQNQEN

Cytochrome P450 2C9 = Cytochrome P450 2C9 (Homo sapiens, UniProt P11712)
Sequence of Cytochrome P450 2C9 (P11712 whole entry): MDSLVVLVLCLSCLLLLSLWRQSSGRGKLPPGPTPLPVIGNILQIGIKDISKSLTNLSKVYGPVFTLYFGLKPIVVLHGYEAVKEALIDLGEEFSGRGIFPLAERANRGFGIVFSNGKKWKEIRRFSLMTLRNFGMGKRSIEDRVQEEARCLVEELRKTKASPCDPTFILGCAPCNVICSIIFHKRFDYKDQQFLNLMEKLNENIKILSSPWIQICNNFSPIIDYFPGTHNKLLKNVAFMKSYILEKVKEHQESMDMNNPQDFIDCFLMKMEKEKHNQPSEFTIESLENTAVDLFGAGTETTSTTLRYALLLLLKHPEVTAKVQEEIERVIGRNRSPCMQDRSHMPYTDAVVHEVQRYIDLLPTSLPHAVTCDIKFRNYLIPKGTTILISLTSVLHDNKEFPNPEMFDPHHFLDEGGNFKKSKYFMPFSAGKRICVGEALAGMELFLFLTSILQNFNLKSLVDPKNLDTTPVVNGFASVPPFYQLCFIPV

[6] = target: T1, Ubiquitin-conjugating enzyme E2 N (Homo sapiens, UniProt P61088); type: functional;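 also: Dose-response confirmation in a TR-FRET assay detecting UBC13-driven polyubiquitin chain formation, inhibition measured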
T1 sequence (P61088 whole entry): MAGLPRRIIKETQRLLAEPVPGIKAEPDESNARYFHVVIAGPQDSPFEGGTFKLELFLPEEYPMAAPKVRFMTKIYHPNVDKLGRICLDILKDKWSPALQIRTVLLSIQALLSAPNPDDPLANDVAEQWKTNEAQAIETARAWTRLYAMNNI

[7] = target: T2, Microphthalmia-associated transcription factor (Homo sapiens, UniProt O75030); assay: reducers of TRPM1 reporter luminescence, concentration series – cell-based, SK-MEL-5, cherry-picked, set 3, MITF inhibitor project, dose response (AID 493073); type: functional;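 also: SK-MEL-5 melanoma cells with luciferase driven by the MITF target TRPM1 promoter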
T2 sequence (O75030 whole entry): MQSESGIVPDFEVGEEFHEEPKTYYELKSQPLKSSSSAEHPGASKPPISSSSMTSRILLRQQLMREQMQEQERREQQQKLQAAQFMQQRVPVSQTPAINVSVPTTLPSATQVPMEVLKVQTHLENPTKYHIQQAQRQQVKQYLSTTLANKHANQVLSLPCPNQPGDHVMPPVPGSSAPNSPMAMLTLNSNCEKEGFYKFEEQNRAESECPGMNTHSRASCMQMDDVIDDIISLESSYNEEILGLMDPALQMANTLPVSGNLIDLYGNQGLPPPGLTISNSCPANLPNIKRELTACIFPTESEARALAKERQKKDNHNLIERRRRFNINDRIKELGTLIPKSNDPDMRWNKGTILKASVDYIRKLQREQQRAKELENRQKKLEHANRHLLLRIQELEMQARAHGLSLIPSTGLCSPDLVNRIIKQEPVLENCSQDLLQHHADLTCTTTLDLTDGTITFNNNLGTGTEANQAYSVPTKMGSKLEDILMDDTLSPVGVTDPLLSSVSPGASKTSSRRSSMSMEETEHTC

[8] = HEK-293T viability loss after treatment – luminescence, T-cell screen hits, cytotoxicity control for TCR NF-kB inhibitor project, dose response (AID 489026); type: functional, cell-based;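 also: cells exposed to compound about 14 hours before the viability readout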
Paired box protein Pax-8 = Paired box protein Pax-8 (Homo sapiens, UniProt Q06710); assay: PAX8 transcriptional activity inhibition in RMG-I – RMG-I cells, luciferase, cherry-pick, dose response (AID 687027); type: functional, cell-based;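 also: luciferase reporter driven by Pax8 target thyroperoxidase promoter measured by SteadyGlo luminescence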
Sequence of Paired box protein Pax-8 (Q06710 whole entry): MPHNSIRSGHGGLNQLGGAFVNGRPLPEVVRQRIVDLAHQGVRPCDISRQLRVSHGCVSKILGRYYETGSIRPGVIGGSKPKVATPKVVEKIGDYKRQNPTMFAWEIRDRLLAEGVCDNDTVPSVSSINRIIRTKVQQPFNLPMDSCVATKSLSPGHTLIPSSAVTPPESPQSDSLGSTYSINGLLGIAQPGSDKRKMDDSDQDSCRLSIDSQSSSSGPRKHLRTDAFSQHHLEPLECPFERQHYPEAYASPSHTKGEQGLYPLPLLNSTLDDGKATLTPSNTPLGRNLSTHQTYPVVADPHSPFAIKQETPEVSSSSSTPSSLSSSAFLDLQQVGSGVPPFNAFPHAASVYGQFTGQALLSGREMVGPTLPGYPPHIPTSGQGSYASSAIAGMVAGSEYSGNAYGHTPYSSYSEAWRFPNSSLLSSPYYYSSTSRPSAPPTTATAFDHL

[9] = luciferase reporter signal suppression in cells – H4 neuroglioma cells, luminescence, dose response (AID 1990); type: functional, cell-based
[10] = Luminescence Cell-Based Dose Response HTS to Identify Inhibitors of 5'UTR Stem-Loop Driven Prion Protein mRNA Translation in H4 Neuroglioblastoma Cells. [Related pubchem assays: 1827 (Project Summary), 1813 (Primary HTS)]; type: functional
[11] = alpha-synuclein stem-loop luciferase translation blockers – H4 neuroglioma cells, luminescence, confirmation (AID 1988); type: functional, cell-based
[12] = HPDE-C7 pancreatic duct cell viability loss – fluorescence, HTS (AID 430); type: functional, cell-based; conditions: Homo sapiens
[13] = viability loss of HPDE-C7K cells – cell-based, fluorescence, HTS, primary screen (AID 431); type: functional; conditions: Homo sapiens
[14] = microbe, parasite or virus in culture; type: functional; conditions: Mycobacterium tuberculosis
[15] = THP-1 cell cytotoxicity, dose response, cytotoxicity control for non-replicating M. tuberculosis project (AID 489025); type: functional
cells = type: functional
Aminopeptidase N = target: T3, Aminopeptidase N (Plasmodium falciparum FcB1/Columbia, UniProt O96935); assay: malaria alanyl aminopeptidase activity blockers – biochemical, fluorogenic H-Leu-NHMec substrate, 1536-well (AID 1445); parameters: species or system Plasmodium falciparum 3D7, 3D7
T3 sequence (O96935 whole entry): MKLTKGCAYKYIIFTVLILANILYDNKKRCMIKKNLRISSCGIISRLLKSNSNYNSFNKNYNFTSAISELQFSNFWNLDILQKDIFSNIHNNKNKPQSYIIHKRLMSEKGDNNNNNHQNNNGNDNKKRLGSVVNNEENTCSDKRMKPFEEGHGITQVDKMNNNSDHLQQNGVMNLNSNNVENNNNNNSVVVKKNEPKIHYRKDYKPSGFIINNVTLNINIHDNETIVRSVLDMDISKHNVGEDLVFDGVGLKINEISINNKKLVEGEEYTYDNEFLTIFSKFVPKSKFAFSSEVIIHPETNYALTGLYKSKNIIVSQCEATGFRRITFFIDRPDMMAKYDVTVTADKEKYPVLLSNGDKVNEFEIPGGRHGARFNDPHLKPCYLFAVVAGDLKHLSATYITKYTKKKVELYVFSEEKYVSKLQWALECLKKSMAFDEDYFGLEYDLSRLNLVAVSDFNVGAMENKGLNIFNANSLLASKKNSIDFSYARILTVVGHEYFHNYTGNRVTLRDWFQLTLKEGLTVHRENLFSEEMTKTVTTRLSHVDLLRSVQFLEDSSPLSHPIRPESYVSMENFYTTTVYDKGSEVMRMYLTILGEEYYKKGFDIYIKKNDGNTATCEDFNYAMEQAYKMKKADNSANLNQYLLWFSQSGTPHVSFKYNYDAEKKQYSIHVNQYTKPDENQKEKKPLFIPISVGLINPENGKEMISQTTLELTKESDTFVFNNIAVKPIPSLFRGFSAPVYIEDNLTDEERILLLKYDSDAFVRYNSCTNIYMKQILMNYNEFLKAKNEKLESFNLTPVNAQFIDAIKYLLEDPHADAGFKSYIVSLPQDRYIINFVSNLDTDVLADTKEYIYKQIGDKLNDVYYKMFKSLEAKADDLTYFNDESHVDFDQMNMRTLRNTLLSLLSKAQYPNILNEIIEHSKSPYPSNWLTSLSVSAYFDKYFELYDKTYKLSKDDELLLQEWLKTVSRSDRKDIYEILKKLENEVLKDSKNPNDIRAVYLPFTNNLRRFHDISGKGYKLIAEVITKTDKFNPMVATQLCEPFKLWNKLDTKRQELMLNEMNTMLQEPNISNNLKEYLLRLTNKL

Sequence of Voltage-dependent T-type calcium channel subunit alpha-1H (O95180 whole entry): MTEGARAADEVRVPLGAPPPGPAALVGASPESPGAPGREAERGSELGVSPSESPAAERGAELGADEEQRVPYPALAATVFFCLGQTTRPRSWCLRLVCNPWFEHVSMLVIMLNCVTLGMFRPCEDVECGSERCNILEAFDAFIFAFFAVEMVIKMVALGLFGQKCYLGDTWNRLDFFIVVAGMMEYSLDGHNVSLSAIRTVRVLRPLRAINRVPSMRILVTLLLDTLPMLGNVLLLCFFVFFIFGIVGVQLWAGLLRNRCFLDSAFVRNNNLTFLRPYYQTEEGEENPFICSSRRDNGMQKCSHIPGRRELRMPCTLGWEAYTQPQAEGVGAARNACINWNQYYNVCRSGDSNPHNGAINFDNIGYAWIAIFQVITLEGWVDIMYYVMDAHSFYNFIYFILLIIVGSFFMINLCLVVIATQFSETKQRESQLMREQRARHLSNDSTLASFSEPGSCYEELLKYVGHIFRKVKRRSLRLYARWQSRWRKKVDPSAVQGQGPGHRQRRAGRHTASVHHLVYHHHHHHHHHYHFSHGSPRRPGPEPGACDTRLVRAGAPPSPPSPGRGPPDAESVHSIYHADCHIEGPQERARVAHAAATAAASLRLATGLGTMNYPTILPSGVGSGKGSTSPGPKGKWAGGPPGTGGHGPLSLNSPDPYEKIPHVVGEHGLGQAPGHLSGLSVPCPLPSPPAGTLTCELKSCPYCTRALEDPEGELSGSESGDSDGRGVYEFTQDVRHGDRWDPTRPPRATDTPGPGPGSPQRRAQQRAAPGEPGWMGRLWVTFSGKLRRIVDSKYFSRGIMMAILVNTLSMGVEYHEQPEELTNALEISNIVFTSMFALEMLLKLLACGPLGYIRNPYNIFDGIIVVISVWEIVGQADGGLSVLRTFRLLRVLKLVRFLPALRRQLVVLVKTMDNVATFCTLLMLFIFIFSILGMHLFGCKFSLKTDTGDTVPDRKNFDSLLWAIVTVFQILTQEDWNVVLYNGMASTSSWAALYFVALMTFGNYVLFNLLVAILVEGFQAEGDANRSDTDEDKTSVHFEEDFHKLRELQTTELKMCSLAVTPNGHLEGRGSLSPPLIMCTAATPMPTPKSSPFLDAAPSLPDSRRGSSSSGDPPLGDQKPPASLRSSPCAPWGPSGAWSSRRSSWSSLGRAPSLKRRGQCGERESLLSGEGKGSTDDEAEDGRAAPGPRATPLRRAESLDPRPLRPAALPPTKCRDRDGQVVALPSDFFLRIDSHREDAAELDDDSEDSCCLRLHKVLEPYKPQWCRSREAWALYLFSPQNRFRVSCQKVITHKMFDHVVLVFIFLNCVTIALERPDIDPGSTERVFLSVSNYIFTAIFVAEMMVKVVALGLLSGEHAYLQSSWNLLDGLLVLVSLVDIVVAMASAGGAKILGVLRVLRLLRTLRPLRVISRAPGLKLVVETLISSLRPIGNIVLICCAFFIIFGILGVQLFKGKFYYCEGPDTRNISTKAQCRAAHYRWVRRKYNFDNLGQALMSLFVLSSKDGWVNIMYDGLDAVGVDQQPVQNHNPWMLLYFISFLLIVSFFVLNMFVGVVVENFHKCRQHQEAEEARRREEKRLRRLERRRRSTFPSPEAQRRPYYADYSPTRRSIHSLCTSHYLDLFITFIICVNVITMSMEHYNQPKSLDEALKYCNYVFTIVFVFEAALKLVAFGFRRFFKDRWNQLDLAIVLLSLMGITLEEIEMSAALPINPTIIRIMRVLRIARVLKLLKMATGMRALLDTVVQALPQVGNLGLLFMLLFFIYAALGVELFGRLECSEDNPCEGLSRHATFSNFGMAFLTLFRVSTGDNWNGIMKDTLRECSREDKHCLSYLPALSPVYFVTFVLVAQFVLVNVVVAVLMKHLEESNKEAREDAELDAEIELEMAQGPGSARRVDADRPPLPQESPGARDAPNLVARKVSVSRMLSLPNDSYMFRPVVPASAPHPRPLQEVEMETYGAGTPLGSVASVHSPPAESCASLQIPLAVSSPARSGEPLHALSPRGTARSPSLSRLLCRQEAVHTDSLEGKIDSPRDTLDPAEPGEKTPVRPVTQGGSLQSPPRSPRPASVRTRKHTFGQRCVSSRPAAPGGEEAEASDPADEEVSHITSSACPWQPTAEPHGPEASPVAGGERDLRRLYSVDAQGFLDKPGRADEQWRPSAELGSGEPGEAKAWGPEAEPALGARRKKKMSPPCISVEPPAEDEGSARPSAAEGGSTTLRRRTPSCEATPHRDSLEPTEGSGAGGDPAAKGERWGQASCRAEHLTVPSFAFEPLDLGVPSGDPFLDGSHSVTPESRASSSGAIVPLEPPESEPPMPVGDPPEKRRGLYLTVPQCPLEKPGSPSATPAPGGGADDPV

Compound: CC/N=c1\sc2ccccc2n1CC(O)COc1ccccc1 (stereo not drawn)
- EC50 [1]: 29.1 µM (active)

Compound: COC(=O)c1[nH]c2ccc(Cl)cc2c1NC(=O)CN1CCc2cc(OC)c(OC)cc2C1
- EC50 [2]: > 112 µM (not active)
- EC50 [3]: > 112 µM (not active)
- IC50 [4]: 3.18 µM (active)
- IC50 [5]: 7.77 µM (active)

Compound: CCN(CC)C(=O)C(=O)N/N=C/c1cccc(Br)c1
- AC50 (Cytochrome P450 2C9): inconclusive

Compound: COC(=O)C1=C(C)N(Cc2ccccc2)C(NCC(C)C)=N[C@H]1c1cccc(C(F)(F)F)c1
- IC50 [4]: 2.88 µM (active)
- IC50 [6]: > 20 µM (inactive)
- IC50 [5]: 4.22 µM (active)
- AC50 [7]: 15 µM (active)

Compound: CCn1nc(C(=O)Nc2cccc3ccccc23)c(Cl)c1Cl
- EC50 [1]: 10.5 µM (active)

Compound: COc1cc(C2C(C#N)=C(N)Oc3cc4c(cc32)OCO4)cc(OC)c1OC (stereo not drawn)
- IC50 [8]: > 80 µM (inactive)
- AC50 [7]: 0.365 µM (active)
- AC50 (Paired box protein Pax-8): 0.553 µM (active)

Compound: Cc1cccc(C2=NCC(=O)N(CC(=O)NCc3ccco3)c3sc4c(c32)CCCC4)c1
- EC50 [1]: 4.37 µM (active)

Compound: COC(=O)c1[nH]c2ccc(Br)cc2c1NC(=O)CN1CCN(C2CCCCC2)CC1
- EC50 [9]: 12.2 µM (active)
- EC50 [10]: 12.9 µM (active)
- EC50 [11]: 7.79 µM (active)
- EC50 [12]: > 20 µM (not active)
- EC50 [13]: > 20 µM (not active)
- IC50 [8]: 22.4 µM (inactive)

Compound: CN1C(=O)/C(=C/c2cccc(Cl)c2)Sc2ccc(C(=O)N3CCCC3)cc21
- CC50 [14]: 25.5 µM (active)
- CC50 [15]: 9.59 µM (active)
- IC50 (cells): 34.4 µM (active)

Compound: O=C(Nn1c(C2CCC2)nc2ccccc2c1=O)C1CCC1
- IC50 (Aminopeptidase N): 48.2 µM (active)

Compound: Nc1cc(N)nc(SCC(=O)Nc2ccc(Br)cc2Cl)n1
- IC50 [4]: 4.42 µM (active)
- IC50 [5]: 6.06 µM (active)

Compound: COc1ccccc1CC(=N)NOC(=O)c1ccc(C)c([N+](=O)[O-])c1
- AC50 (Cytochrome P450 2C9): inconclusive
